Legend:
[1] = biological target: 5-hydroxytryptamine receptor 1D (Bos taurus); assay: Binding affinity against calf caudate 5-hydroxytryptamine 1D receptor
[2] = biological target: 5-hydroxytryptamine receptor 2A (Oryctolagus cuniculus); assay: Binding affinity against rabbit aorta 5-HT2A receptor
[3] = biological target: 5-hydroxytryptamine receptor 2C (Cavia porcellus); assay: Binding affinity against guinea pig cortex 5-HT2C receptor in the presence of [3H]mesulergine

- IC50 [1]: 0.089 µM
- IC50 [2]: > 10 µM
- IC50 [3]: > 10 µM
SMILES: CN(C)[C@H]1C[C@H](c2c[nH]c3ccc(CC4COC(=O)N4)cc32)C1 (stereo partly drawn)
